Target: T1, LPA2R (Homo sapiens, UniProt Q9HBW0)
T1 construct: expressed in transfected cells; host or cells: U2OS
Assay: LPA2R-Calciumflux assay (FLIPR, intracellular calcium mobilisation after LPA)
Assay type: cell-based
Details: U2OS cells recombinant expressing LPA2R; antagonism of LPA-induced calcium flux; racemate of the two trans enantiomers unless marked enantiomer
Source text: The assay detects intra cellular calcium which is generated by cells upon activation of the LPA2 receptor by its ligand LPA. This transient calcium mobilization can be monitored using a commercial calcium detection kit (e.g. from Molecular Devices). The main component of such a kit is a dye, which becomes fluorescent when calcium is present—a transient fluorescence signal after addition of a ligand to a test well are the result. Readers like the FLIPR (Molecular Devices) can be used to monitor such transient “Ca-flux” signals.
The signals are calculated according to peak maximum minus base line.
Compounds which are antagonists of LPA lead to a decreased mobilisation of intracellular calcium and thus to a lower signal. The assay is performed in microplates (384 wells per plate).
LPA2R-Calciumflux Assay Protocol
The assay is run according to the following procedure:
50 uL seed cells (10000 cells/well in DMEM buffer)
• Incubate 24 h at 37° C., 10% CO2 • aspirate medium 50 uL add calcium dye 1×HBSS/HEPES buffer • incubate 1 h at 37° C. (“loading”) • equilibrate 10 min at RT 5 uL add compounds in HEPES buffer • shake 10 sec. at 1000 rpm • incubate 15 min at RT 20 uL add LPA (in the FLIPR Tetra) in Krebs-buffer/BSA & measurement
The cells are seeded in DMEM buffer (DMEM, 10% FCS, 10 mM HEPES, 1% Pen/Strep).
Dye loading is done in HBSS/HEPES buffer (100 mL 10×HBSS+20 mL 1M HEPES+880 mL water, pH 7.4)
The LPA is added in Krebs/BSA buffer (120 mM NaCl, 5 mM KCl, 0.62 mM MgSO4, 1.8 mM CaCl2, 10 mM HEPES, 6 mM D(+)-Glucose, 0.2% BSA, pH 7.4).
The compounds are pre-diluted in HEPES buffer (20 mM, pH 7.4), whereby the final DMSO content in the assay is kept at 1%. The compounds are pre-diluted in order to generate dose response series on the microplates. The dose response series consist of 10 concentrations for each compound from 30 uM final to 1 nM final. From all compound wells the resulting signals are referred to control wells (located on each plate besides the compound wells) in terms of % activity.
From these % activity values—along with the corresponding compound concentrations—IC50 values are fitted for each compound using standard fitting programs such as Graphpad Prism. Here the method “log(inhibitor) vs. response—Variable slope” is used.

T1 sequence (Q9HBW0 whole entry): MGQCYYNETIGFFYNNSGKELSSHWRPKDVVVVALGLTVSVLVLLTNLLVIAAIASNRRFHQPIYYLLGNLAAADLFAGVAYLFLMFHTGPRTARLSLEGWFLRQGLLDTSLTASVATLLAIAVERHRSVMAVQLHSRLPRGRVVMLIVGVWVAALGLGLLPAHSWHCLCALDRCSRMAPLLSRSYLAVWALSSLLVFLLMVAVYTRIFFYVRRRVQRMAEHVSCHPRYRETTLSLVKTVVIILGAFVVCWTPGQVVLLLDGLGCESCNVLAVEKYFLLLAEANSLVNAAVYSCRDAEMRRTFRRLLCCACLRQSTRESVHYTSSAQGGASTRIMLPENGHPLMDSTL

IC50 [nM]	Compound
1000 to 10000	O=C(Nc1nc2ccccc2[nH]1)C1CC1c1ccc(C(F)(F)F)cc1 (racemic) [2-(4-Trifluoromethyl-phenyl)-cyclopropane-carboxylic acid (1H-benzoimidazol-2-yl)-amide]
< 10	N#Cc1ccc2nc(NC(=O)C3CC3c3cccc(F)c3)[nH]c2c1 (racemic) [2-(3-Fluoro-phenyl)-cyclopropane-carboxylic acid (6-cyano-1H-benzoimidazol-2-yl)-amide]
10 to 100	O=C(Nc1nc2ccccc2[nH]1)C1CC1c1ccccc1Cl (racemic) [2-(2-Chloro-phenyl)-cyclopropane-carboxylic acid (1H-benzoimidazol-2-yl)-amide]
10 to 100	Cc1cccc(C2CC2C(=O)Nc2nc3ccccc3[nH]2)c1 (racemic) [2-m-Tolyl-cyclopropane-carboxylic acid (1H-benzoimidazol-2-yl)-amide]
100 to 1000	O=C(Nc1nc2c(OCCN3CCCC3)cccc2[nH]1)C1CC1c1ccccc1 (single isomer, unassigned; enantiomer-2) [enantiomer-2-Phenyl-cyclopropane-carboxylic acid [4-(2-pyrrolidin-1-yl-ethoxy)-1H-benzoimidazol-2-yl]-amide]
10 to 100	O=C(Nc1nc2ccccc2[nH]1)C1CC1c1cccc(F)c1 (racemic) [2-(3-Fluoro-phenyl)-cyclopropane-carboxylic acid (1H-benzoimidazol-2-yl)-amide]
1000 to 10000	O=C(Nc1nc2ccccc2[nH]1)C1CC1c1ccccc1 (single isomer, unassigned; enantiomer-2) [drawing 58, enantiomer-2-Phenyl-cyclopropane-carboxylic acid (1H-benzoimidazol-2-yl)-amide]
10 to 100	O=C(Nc1nc2ccccc2[nH]1)C1CC1c1ccccc1 (racemic) [2-Phenyl-cyclopropane-carboxylic acid (1H-benzoimidazol-2-yl)-amide]
> 10000	CC1(C)C(C(=O)Nc2nc3ccc(C#N)cc3[nH]2)C1c1ccccc1 (racemic) [2,2-Dimethyl-3-phenyl-cyclopropane-carboxylic acid (6-cyano-1H-benzoimidazol-2-yl)-amide]
10 to 100	O=C(Nc1nc2ccccc2[nH]1)C1CC1c1ccccc1Cl (single isomer, unassigned; enantiomer-2) [drawing 75, enantiomer-2-(2-Chloro-phenyl)-cyclopropane-carboxylic acid (1H-benzoimidazol-2-yl)-amide]
10 to 100	O=C(Nc1nc2ccnc(Cl)c2[nH]1)C1CC1c1ccccc1 (racemic) [2-Phenyl-cyclopropane-carboxylic acid (4-chloro-3H-imidazo[4,5-c]pyridin-2-yl)-amide]
100 to 1000	CC(C)(C)OC(=O)NCc1ccc2[nH]c(NC(=O)C3CC3c3ccccc3)nc2c1 (racemic) [{2-[(2-Phenyl-cyclopropane-carbonyl)-amino]-1H-benzoimidazol-5-ylmethyl}-carbamic acid tert-butyl ester]
100 to 1000	O=C(Nc1nc2c([N+](=O)[O-])cc(C(F)(F)F)cc2[nH]1)C1CC1c1ccccc1 (racemic) [2-Phenyl-cyclopropane-carboxylic acid (4-nitro-6-trifluoromethyl-1H-benzoimidazol-2-yl)-amide]
10 to 100	O=C(Nc1nc2ccc(C(F)(F)F)cc2[nH]1)C1CC1c1ccccc1Cl (racemic) [2-(2-Chloro-phenyl)-cyclopropane-carboxylic acid (6-trifluoromethyl-1H-benzoimidazol-2-yl)-amide]
100 to 1000	CN(C)c1cccc(C2CC2C(=O)Nc2nc3ccccc3[nH]2)c1 (racemic) [2-(3-Dimethylamino-phenyl)-cyclopropane-carboxylic acid (1H-benzoimidazol-2-yl)-amide]
< 10	O=C(Nc1nc2ccccc2[nH]1)C1CC1c1ccccc1 (single isomer, unassigned; enantiomer-2) [drawing 59, enantiomer-2-Phenyl-cyclopropane-carboxylic acid (1H-benzoimidazol-2-yl)-amide]

Source: patent publication US8912202B2, “N-(benzimimdazol-2-yl)-cyclopropane carboxamides as lysophosphatidic acid antagonists” (Merck Patent GmbH, priority 2011, dated 2014)
